Experiments:
Assay type in all cases: in vivo
[1] = tested on: Helicoverpa armigera; assay: Insecticidal activity against Helicoverpa armigera (soaking method); conditions: Helicoverpa armigera, 48 h; 400 μg/mL; 2nd instar larvae; counted 2 days later; read-out: Mortality rate (%) H. armigera
Description: (§1) Preparation of test agent. Dissolve accurately weighed tested compound in DMF to prepare 1% mother liquor, and then dilute it with distilled water containing 0.1% Tween-80 to corresponding concentrations for later use.
Insecticidal activity against Helicoverpa armigera. The soaking method was adopted ([Yang et al., 2022]). After soaking a proper amount of corn leaves for 10 s, they were placed in a plastic Petri dish with filter paper and dried naturally in the shade. Ten larvae of the 2nd instar H. armigera were attached to each dish and placed in an observation room at 26°C with light (16/8 h). The result was counted 2 days later, and the no-response insect body when it was lightly touched with a brush was regarded as dead. Each treatment was repeated 3 times, and DMF without the tested compound was used as a blank control.
(§2) The insecticidal activities of the test compounds against the abovementioned five insects were calculated by the following formula: P1=(K/N)×100, (1) P2=(Pt−P0)/(1−P0)×100, (2) where P1 is the mortality rate; K is the dead insect number; N is the total number of experimental insects; P2 is the corrected mortality rate; Pt is the mortality rate of treatment; P0 is the mortality rate of CK. If the mortality rate of CK is less than 5%, without the required correction, and if the mortality rate of CK is between 5 and 20%, P2 should be calculated according to formula II.

[2] = tested on: Plutella xylostella; assay: Insecticidal activity against Plutella xylostella (soaking method); conditions: Plutella xylostella, 48 h, 2nd instar larvae, counted 2 days later, read-out: Mortality rate (%) P. xylostella; for mortality at 25 µg/mL: 25 μg/mL; for mortality at 100 µg/mL: 100 μg/mL; for mortality at 400 µg/mL: 400 μg/mL
Description: as §1
Insecticidal activity against Plutella xylostella ([Yang et al., 2021]). The soaking method was adopted. After soaking a proper amount of radish leaves for 10 s, it was placed in a plastic Petri dish with filter paper and dried naturally in the shade. Each dish was inoculated with 10 2nd instar P. xylostella larvae and placed in an observation room at 22°C with light (16/8 h). The result was counted 2 days later, and the no-response insect body when it was lightly touched with a brush was regarded as dead. Each treatment was repeated three times, and DMF without the tested compound was used as a blank control.
as §2

[3] = tested on: Aphis craccivora; assay: Insecticidal activity against Aphis craccivora (Potter spray tower); conditions: 400 μg/mL, counted 24 h later, read-out: Mortality rate (%) A. craccivora
Procedure: as §1
Insecticidal activity against Aphis craccivora ([Liu et al., 2022]). About 30 nymphs of alfalfa aphid were placed on a horsebean leaf dish, and then 2.5 ml of the tested agent was sprayed with Potter spray tower. After treatment, they were cultured in an observation room at 20–22°C. The result was counted 24 h later, and the no-response insect body when it was lightly touched with tweezers was regarded as dead. Each treatment was repeated three times, and DMF without the tested compound was used as a blank control.
as §2

[4] = tested on: Chilo suppressalis; assay: Insecticidal activity against Chilo suppressalis (soaking method); conditions: 96 h, 3rd instar larvae, counted 4 days later, read-out: Mortality rate (%) C. suppressalis; for mortality at 400 µg/mL: 400 μg/mL
Description: as §1
Insecticidal activity against Chilo suppressalis ([Huang et al., 2022]). The soaking method was adopted. The Zizania latifolia slices were soaked in a tested solution for 10 s, then taken out, and placed in a plastic Petri dish with filter paper to naturally dry in the shade. […] The result was counted 4 days later, and the no-response insect body when it was lightly touched with a brush was regarded as dead. Each treatment was repeated three times, and DMF without the tested compound was used as a blank control.
as §2

[5] = tested on: Nilaparvata lugens; assay: Insecticidal activity against Nilaparvata lugens (Potter spray tower); conditions: 24 h, 3rd instar nymphae, 1 day after treatment, read-out: Mortality rate (%) N. lugens; for mortality at 400 µg/mL: 400 μg/mL
Description: as §1
Insecticidal activity against Nilaparvata lugens ([Ghareeb et al., 2021]). The seedlings with two leaves and one heart were placed in a Petri dish with a bottom diameter of 3 cm and covered with white sand. After the 3rd instar nymphae of N. lugens were stunned by CO2, about 15 nymphae were received in each dish, and then 2.5 ml of the tested agent was sprayed with Potter spray tower. The mortality of N. lugens was investigated 1 day after the treatment. Each treatment was repeated three times, and DMF without the tested compound was used as a blank control.
as §2

Compound `COCC(=O)/N=c1\ccccn1Cc1cnn(-c2cccc(Cl)c2)c1C(F)F` [Compound B6, (E)-N-(1-((1-(3-chlorophenyl)-5-(difluoromethyl)-1H-pyrazol-4-yl)methyl)pyridin-2(1H)-ylidene)-2-methoxyacetamide] has a mortality at 400 µg/mL [1] of 0%, a mortality at 25 µg/mL [2] of 0% and a mortality at 100 µg/mL [2] of 83.3%. The mortality at 400 µg/mL [2] was 100%, the mortality at 400 µg/mL [3] was 0% and the mortality at 400 µg/mL [4] was 0%. For the same compound, the mortality at 400 µg/mL [5] was 0%.
With `Cn1cc(C(=O)/N=c2\ccccn2Cc2cnn(-c3ccccc3)c2C(F)(F)F)c(C(F)F)n1` [Compound D1, (E)-3-(difluoromethyl)-1-methyl-N-(1-((1-phenyl-5-(trifluoromethyl)-1H-pyrazol-4-yl)methyl)pyridin-2(1H)-ylidene)-1H-pyrazole-4-carboxamide] the mortality at 400 µg/mL [1] was 0%, the mortality at 400 µg/mL [2] was 46.7% and the mortality at 400 µg/mL [3] was 0%. For the same compound, the mortality at 400 µg/mL [4] was 0% and the mortality at 400 µg/mL [5] was 0%.
`O=C(/N=c1\ccccn1Cc1cnn(-c2ccccc2)c1C(F)(F)F)C(F)(F)C(F)(F)F` [Compound C1, (E)-2,2,3,3,3-pentafluoro-N-(1-((1-phenyl-5-(trifluoromethyl)-1H-pyrazol-4-yl)methyl)pyridin-2(1H)-ylidene)propanamide] showed a mortality at 400 µg/mL [1] of 0%, a mortality at 400 µg/mL [2] of 0% and a mortality at 400 µg/mL [3] of 0%. It also gave a mortality at 400 µg/mL [4] of 0% and a mortality at 400 µg/mL [5] of 0%.
`O=C(/N=c1\ccccn1Cc1cnn(-c2cccc(F)c2)c1C(F)(F)F)C(F)(F)F` [Compound A3, (E)-2,2,2-trifluoro-N-(1-((1-(3-fluorophenyl)-5-(trifluoromethyl)-1H-pyrazol-4-yl)methyl)pyridin-2(1H)-ylidene)acetamide] showed a mortality at 400 µg/mL [1] of 0%, a mortality at 25 µg/mL [2] of 0% and a mortality at 100 µg/mL [2] of 86.7%. It also gave a mortality at 400 µg/mL [2] of 100%, a mortality at 400 µg/mL [3] of 0% and a mortality at 400 µg/mL [4] of 0%. For the same compound, the mortality at 400 µg/mL [5] was 0%.
`O=C(/N=c1\ccccn1Cc1cnn(-c2cccc(F)c2)c1C(F)F)C(F)(F)F` [Compound A7, (E)-N-(1-((5-(difluoromethyl)-1-(3-fluorophenyl)-1H-pyrazol-4-yl)methyl)pyridin-2(1H)-ylidene)-2,2,2-trifluoroacetamide] was tested, and the mortality at 400 µg/mL [1] was 0%, the mortality at 400 µg/mL [2] was 63.3% and the mortality at 400 µg/mL [3] was 0%. For the same compound, the mortality at 400 µg/mL [4] was 0% and the mortality at 400 µg/mL [5] was 0%.
`Cn1cc(C(=O)/N=c2\ccccn2Cc2cnn(-c3ccc(F)cc3)c2C(F)F)c(C(F)F)n1` [Compound D7, (E)-3-(difluoromethyl)-N-(1-((5-(difluoromethyl)-1-(4-fluorophenyl)-1H-pyrazol-4-yl)methyl)pyridin-2(1H)-ylidene)-1-methyl-1H-pyrazole-4-carboxamide] was tested, and the mortality at 400 µg/mL [1] was 0%, the mortality at 400 µg/mL [2] was 73.3% and the mortality at 400 µg/mL [3] was 0%. It also gave a mortality at 400 µg/mL [4] of 0%, a mortality at 100 µg/mL ([5]; 100 μg/mL) of 0% and a mortality at 400 µg/mL [5] of 100%.
For `O=C(/N=c1\ccccn1Cc1cnn(-c2ccc(F)cc2)c1C(F)F)C(F)(F)C(F)(F)F` [Compound C8, (E)-N-(1-((5-(difluoromethyl)-1-(4-fluorophenyl)-1H-pyrazol-4-yl)methyl)pyridin-2(1H)-ylidene)-2,2,3,3,3-pentafluoropropanamide], the mortality at 400 µg/mL [1] was 0%, the mortality at 400 µg/mL [3] was 0% and the mortality at 400 µg/mL [4] was 0%. For the same compound, the mortality at 400 µg/mL [5] was 0%.
`O=C(/N=c1\ccccn1Cc1cnn(-c2ccc(C(F)(F)F)cc2)c1C(F)(F)F)C(F)(F)C(F)(F)F` [Compound C5, (E)-2,2,3,3,3-pentafluoro-N-(1-((5-(trifluoromethyl)-1-(4-(trifluoromethyl)phenyl)-1H-pyrazol-4-yl)methyl)pyridin-2(1H)-ylidene)propanamide] was tested, and the mortality at 400 µg/mL [1] was 0%, the mortality at 400 µg/mL [2] was 70% and the mortality at 400 µg/mL [3] was 0%. The mortality at 100 µg/mL ([4]; 100 μg/mL) was 0% and the mortality at 400 µg/mL [4] was 100%.
